Assay results: US20250312329A1, “MODIFIED RELEASE NICORANDIL COMPOUND FORMULATIONS” (AUXILIUS PHARMA SPOLKA Z OGRANICZONA ODPOWIEDZIALNOSCIA, priority 2021, published 2025)

Assays:
[1] = Loss of drying (LOD) of nicorandil/excipient powder blends; type: physicochemical; conditions: 1:1 excipient/API powder blend
Description: To better understand the stability of nicorandil formulations according to the invention at an ingredient level, the following powder blend combinations were generated and analyzed: • NCD+HPMC • NCD+Starch • NCD+MCC • NCD+Magnesium stearate • NCD+Mannitol (not used in current formulation) • NCD only […]

[2] = test system: patients with stable angina; conditions: cited from earlier work
[3] = in vivo; cited from earlier work
[4] = Excipient/API powder blend stability: impurities and NCD content initially and after storage; type: physicochemical
Protocol: To better understand the stability of nicorandil formulations according to the invention at an ingredient level, the following powder blend combinations were generated and analyzed: • NCD+HPMC • NCD+Starch • NCD+MCC • NCD+Magnesium stearate • NCD+Mannitol (not used in current formulation) • NCD only […] These compositions were further analyzed (N=2) for impurities ([…]) and NCD content both initially and after 2 or 4 weeks of storage at accelerated stability testing conditions (40° C.) (per US FDA typical standards/procedures) or room temperature conditions (25° C.). Unknown impurities (“Unk. Imps.”) were also measured and the sum of all measured impurities (“Sum Imps.”) calculated.

In the case of `O=C(NCCO[N+](=O)[O-])c1cccnc1` [Nicorandil, N-[2-(Nitro-oxy)ethyl]-3-pyridine carboxamide], the “LOD (%)” value [1] is listed as 0.28%, the “composite endpoint of coronary heart disease death, non-fatal MI or unplanned hospital admission with chest pain” value ([2]; IONA study, versus placebo, average 1.6 years) is listed as “reduction in the composite endpoint” and the “reduction in all-cause mortality” value ([2]; JCAD study, average 2.7 years) is listed as 35%. For the same molecule, the “reduction in cardiac death” value ([2]; JCAD study, average 2.7 years) was 56%, the elimination half-life [3] was “approximately 1 hour” and the “Imp A” value ([4]; T = 0) was 0.00 Weight Percent. The “Imp B” value ([4]; T = 0) was 0.01 Weight Percent, the “Imp C” value ([4]; T = 0) was 0.01 Weight Percent and the “Imp D” value ([4]; T = 0) was 0.11 Weight Percent. The “Mass Balance” value ([4]; T = 0) was 98.60 Weight Percent, the NCD ([4]; T = 0) was 98.40 Weight Percent and the “Sum Imps.” value ([4]; T = 0) was 0.20 Weight Percent. The “Unk. Imps.” value ([4]; T = 0) was 0.06 Weight Percent, the “Imp A” value ([4]; T = 2 weeks, 40° C.) was 0.00 Weight Percent and the “Imp B” value ([4]; T = 2 weeks, 40° C.) was 0.04 Weight Percent. The “Imp C” value ([4]; T = 2 weeks, 40° C.) was 0.05 Weight Percent, the “Imp D” value ([4]; T = 2 weeks, 40° C.) was 0.22 Weight Percent and the “Mass Balance” value ([4]; T = 2 weeks, 40° C.) was 100.01 Weight Percent. The NCD ([4]; T = 2 weeks, 40° C.) was 99.52 Weight Percent, the “Sum Imps.” value ([4]; T = 2 weeks, 40° C.) was 0.49 Weight Percent and the “Unk. Imps.” value ([4]; T = 2 weeks, 40° C.) was 0.18 Weight Percent. The “Imp A” value ([4]; T = 4 weeks, 25° C.) was 0.00 Weight Percent, the “Imp B” value ([4]; T = 4 weeks, 25° C.) was 0.00 Weight Percent and the “Imp C” value ([4]; T = 4 weeks, 25° C.) was 0.00 Weight Percent. For the same molecule, the “Imp D” value ([4]; T = 4 weeks, 25° C.) was 0.12 Weight Percent, the “Mass Balance” value ([4]; T = 4 weeks, 25° C.) was 108.41 Weight Percent and the NCD ([4]; T = 4 weeks, 25° C.) was 108.13 Weight Percent. For the same molecule, the “Sum Imps.” value ([4]; T = 4 weeks, 25° C.) was 0.29 Weight Percent and the “Unk. Imps.” value ([4]; T = 4 weeks, 25° C.) was 0.17 Weight Percent.
